This is an account of results in patent US20220160817A1, “Pharmaceutical composition with improved stability” (Foresee Pharmaceuticals Co., Ltd., priority 2014, published 2022).

Holding throughout (format): physicochemical
Data set [1] is described as follows: FMOC-SER-OH / FMOC-ARG-OH reaction with D,L-lactide monomers in NMP at 25° C., HPLC. The note with it: 25% D,L-lactide in NMP. How it is done: All impurity structures identified have polymers reacting with the arginine group of the peptide. In the present invention, it is shown that the conjugates of lactide monomers reacting with the serine group of the peptide are the more significant impurities generated, that were not observed previously. To test the generation of leuprolide conjugates with lactide monomers, FMOC-ARG-OH or FMOC-SER-OH was dissolved in NMP. To this solution D,L-lactide monomers were added. The solution was mixed well by vortexing. 5 uL of the solution was added to an HPLC vial with 0.5 mL of acetonitrile and 0.5 mL stability buffer (0.6% TEA/0.3% H3PO4 in water, pH=3.0). The sample was then analyzed by HPLC. The remaining solutions were stored in a glass vial at 25° C. Samples were taken at specified time points and analyzed by UPLC.

Data set [2] is described as follows: L-lactide monomer impurity generation with leuprolide mesylate in NMP, HPLC. The conditions noted are these: NMP with 10% L-lactide, 3 hours at 37° C.
A short description of data set [3]: Octreotide mesylate with excess methane sulfonic acid in solvent with added lactide monomer. The conditions noted are these: pH of the salt solution 2.4, pharmaceutically acceptable solvent. The text has this: U.S. Pat. No. 8,343,513 further discloses that in order to reduce the impurities generation, low molecular weight polymers with high acid numbers and significant amount of low pKa acid additives or oligomers have to be used. Such acidic dispersed phases are not suitable for human parenteral use due to tissue irritation from the low pH. […] In fact more impurities are generated for the solution with excess acid than the one without.

Regarding `NC(N)=NCCC[C@H](NC(=O)OCC1c2ccccc2-c2ccccc21)C(=O)O` [FMOC-ARG-OH], the “impurities generated with D,L-lactide monomers” value in data set [1] (1 day at 25° C.) is “less than that seen with the serine”. As for `O=C(N[C@@H](CO)C(=O)O)OCC1c2ccccc2-c2ccccc21` [FMOC-SER-OH], the “impurities generated with D,L-lactide monomers” value is “very little impurities” in data set [1] (3 hours at 25° C.) and “significant amount of impurities” in data set [1] (1 day at 25° C.).

For the compound leuprolide mesylate [LAMS], the “lactide-related impurity peak shape in chromatogram” value in data set [2] is listed as “single peak”. Turning to octreotide mesylate, the “stability of the peptide with added lactide monomer” value in data set [3] is recorded as “highly unstable”.
